Assay results from patent US9617263B2, “Phenyl-triazolo-pyridine compounds” (Eli Lilly and Company, priority 2014, dated 2017).

Experiments:
hGPR40 = hGPR40 (Homo sapiens, UniProt O14842); experiment: Calcium Flux Primary Assay (FLIPR, Calcium 4 Dye); assay type: cell-based; design: expressed in transfected cells; host or cells: HEK293; details: HEK293, HEK293 cells over expressing human GPR40; vs natural ligand linoleic acid; read-out: efficacy (maximal response compared to linoleic acid)
Procedure: HEK293 cells over expressing the human GPR40 cDNA maintained in Dulbecco's modified Eagle's medium with F12 medium in 3:1 ratio supplemented with 10% FBS and 800 μg/ml geneticin at 37° C. and 5% CO2 are employed for the study. Agonist assays are performed using a Calcium 4 Dye assay kit (Molecular Devices) in the presence or absence of 0.1% fatty acid free BSA in the assay buffer (1×HBSS (Hank's Balanced Salt Solution) & 20 mM HEPES (4-(2-hydroxyethyl)-1-piperazineethanesulfonic acid). Receptor activation is measured as an increase in intracellular calcium using the Fluorometric Imaging Plate Reader (FLIPR). Maximum change in fluorescence over the base line is used to determine the agonist response. The EC50 value of the compound is calculated using Excel Fit software (version 4; IDBS) by plotting concentration vs relative fluorescence units (RFUs).

Male Balb/c mice = experiment: Intraperitoneal glucose tolerance test (IPGTT); assay type: in vivo, mouse; details: 30 and 60 minute time points; Example 1 at 10, 30, 100 mg/kg oral; positive control 10 mg/kg
Procedure: To examine the ability of Examples 1 to 20 to activate GPR40 in-vivo resulting in desired glucose lowering efficacy, i.e. reduction in plasma glucose levels, an intraperitoneal glucose tolerance test (ipGTT) study is completed, and the data is shown for the compound tested below.
Male Balb/c (Albino mice) mice (8-9 weeks of age) are single housed, and fed with normal rodent chow diet and water ad libitum. Animals are weighed; randomized by body weight; and their daily body weights are recorded. Animals are dosed daily using a formulation carrying methylcellulose and tween-80. On the night before the study, animals are fasted. In the morning, animals are dosed orally with compound or vehicle alone 60 minutes prior to the glucose tolerance test (glucose 2 g/kg, i.p.). Blood glucose levels are determined from tail bleeds taken at 0, 3, 7, 15, 30, and 60 min after glucose challenge. […] Percent lowering in glucose is calculated from the AUC data of the compound with respect to the AUC of vehicle group. The test compound is orally administered at 0.3, 1.0, 3.0, 10, 30, or 100 mg/kg, and a positive control (3-[4-(2-methyl-benzyloxy)-phenyl]-hex-4-ynoic acid, see WO2005086661 (TAK875).) is administered at 10 mg/kg. […] Glucose levels are lowered at the 30, and 60 minute time points for the positive control.

Zucker fa/fa rats = experiment: Acute oral glucose tolerance test (OGTT); assay type: in vivo, rat; details: oral; Example 1 at 1, 3 and 10 mg/kg, TAK875 at 1 mg/kg; p<0.05
Procedure: OGTTs are performed in Zucker fa/fa rats, a rodent model of insulin resistance, after 1 and 21 days of orally administered material at 1.0, 3.0 and 10 mg/kg. TAK875 at 1 mg/kg served as the positive control. The OGTTs are performed one hour post compound administration with blood samples taken for determination of glucose and insulin levels at 10, 20, 40, 60, and 120 minutes post glucose administration.

hGPR40, sequence (O14842 whole entry): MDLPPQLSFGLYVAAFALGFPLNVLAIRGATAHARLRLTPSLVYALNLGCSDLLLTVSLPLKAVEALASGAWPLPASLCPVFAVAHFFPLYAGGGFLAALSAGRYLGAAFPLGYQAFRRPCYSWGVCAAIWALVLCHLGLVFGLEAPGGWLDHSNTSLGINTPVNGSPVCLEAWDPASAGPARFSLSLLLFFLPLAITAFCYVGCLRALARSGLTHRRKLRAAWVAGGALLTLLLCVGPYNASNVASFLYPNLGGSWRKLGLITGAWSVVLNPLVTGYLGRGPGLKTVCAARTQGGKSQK

Emax (hGPR40) [%]	Structure (SMILES)	Glucose levels compared to vehicle control (Male Balb/c mice)	AUCs for glucose lowering (Zucker fa/fa rats)
> 35	CC#C[C@@H](CC(=O)O)c1ccc(OCc2cc(-c3ccc(OC(F)F)cc3C)cn3ncnc23)cc1 [Example 20, (S)-3-{4-[6-(4-Difluoromethoxy-2-methyl-phenyl)-[1,2,4]triazolo[1,5-a]pyridin-8-ylmethoxy]-phenyl}-hex-4-ynoic acid]		
> 35	CC#C[C@@H](CC(=O)O)c1ccc(OCc2cc(-c3ccc(S(N)(=O)=O)cc3C)cn3ncnc23)cc1 [Example 18, (S)-3-{4-[6-(2-Methyl-4-sulfamoyl-phenyl)-[1,2,4]triazolo[1,5-a]pyridin-8-ylmethoxy]-phenyl}-hex-4-ynoic acid]		
> 35	CC#C[C@@H](CC(=O)O)c1ccc(OCc2cc(-c3cc(Cl)ccc3C)cn3ncnc23)cc1 [Example 12]		
> 35	CC#C[C@@H](CC(=O)O)c1ccc(OCc2cc(-c3ccc(C(C)C)cc3)cn3ncnc23)cc1 [Example 9, (S)-3-{4-[6-(4-Isopropyl-phenyl)-[1,2,4]triazolo[1,5-a]pyridin-8-ylmethoxy]-phenyl}-hex-4-ynoic acid]		
> 35	CC#C[C@@H](CC(=O)O)c1ccc(OCc2cc(-c3cc(OC)ccc3F)cn3ncnc23)cc1 [Example 6]		
> 35	CC#C[C@@H](CC(=O)O)c1ccc(OCc2cc(-c3ccc(OCCCS(C)(=O)=O)cc3C)cn3ncnc23)cc1 [Example 7, (S)-3-(4-{6-[4-(3-Methanesulfonyl-propoxy)-2-methyl-phenyl]-[1,2,4]triazolo[1,5-a]pyridin-8-ylmethoxy}-phenyl)-hex-4-ynoic acid]		
> 35	CC#C[C@@H](CC(=O)O)c1ccc(OCc2cc(-c3ccc(S(C)(=O)=O)cc3)cn3ncnc23)cc1 [Example 17]		
> 35	CC#C[C@@H](CC(=O)O)c1ccc(OCc2cc(-c3ccc(OCC#N)cc3C)cn3ncnc23)cc1 [Example 16, (S)-3-{4-[6-(4-Cyanomethoxy-2-methyl-phenyl)-[1,2,4]triazolo[1,5-a]pyridin-8-ylmethoxy]-phenyl}-hex-4-ynoic acid]		
> 35	CC#C[C@@H](CC(=O)O)c1ccc(OCc2cc(-c3c(C)cccc3F)cn3ncnc23)cc1 [Example 3, (S)-3-{4-[6-(2-Fluoro-6-methyl-phenyl)-[1,2,4]triazolo[1,5-a]pyridin-8-ylmethoxy]-phenyl}-hex-4-ynoic acid]		
> 35	CC#C[C@@H](CC(=O)O)c1ccc(OCc2cc(-c3c(C)cc(OC)cc3C)cn3ncnc23)cc1 [Example 5, (S)-3-{4-[6-(4-Methoxy-2,6-dimethyl-phenyl)-[1,2,4]triazolo[1,5-a]pyridin-8-ylmethoxy]-phenyl}-hex-4-ynoic acid]		
	Cc1cc(OCCCS(C)(=O)=O)cc(C)c1-c1cccc(COc2ccc3c(c2)OC[C@H]3CC(=O)O)c1 [TAK875, fasiglifam, reference compound]	lowered	statistically significant
> 35	CC#C[C@@H](CC(=O)O)c1ccc(OCc2cc(-c3ccc(OC)cc3C)cn3ncnc23)cc1 [Example 4, (S)-3-{4-[6-(4-Methoxy-2-methyl-phenyl)-[1,2,4]triazolo[1,5-a]pyridin-8-ylmethoxy]-phenyl}-hex-4-ynoic acid]		
> 35	CC#C[C@@H](CC(=O)O)c1ccc(OCc2cc(-c3ccc(C#N)cc3)cn3ncnc23)cc1 [Example 13, (S)-3-{4-[6-(4-Cyano-phenyl)-[1,2,4]triazolo[1,5-a]pyridin-8-ylmethoxy]-phenyl}-hex-4-ynoic acid]		
> 35	CC#C[C@@H](CC(=O)O)c1ccc(OCc2cc(-c3ccc(OC)cc3)cn3ncnc23)cc1 [Example 2, (S)-3-{4-[6-(4-Methoxy-phenyl)-[1,2,4]triazolo[1,5-a]pyridin-8-ylmethoxy]-phenyl}-hex-4-ynoic acid]		
> 35	CC#C[C@@H](CC(=O)O)c1ccc(OCc2cc(-c3ccc(C(C)(C)C#N)cc3)cn3ncnc23)cc1 [Example 19, (S)-3-(4-{6-[4-(Cyano-dimethyl-methyl)-phenyl]-[1,2,4]triazolo[1,5-a]pyridin-8-ylmethoxy}-phenyl)-hex-4-ynoic acid]		
> 35	CC#C[C@@H](CC(=O)O)c1ccc(OCc2cc(-c3ccc(C(F)F)cc3)cn3ncnc23)cc1 [Example 15, (S)-3-{4-[6-(4-Difluoromethyl-phenyl)-[1,2,4]triazolo[1,5-a]pyridin-8-ylmethoxy]-phenyl}-hex-4-ynoic acid]		
> 35	CC#C[C@@H](CC(=O)O)c1ccc(OCc2cc(-c3c(C)cccc3C)cn3ncnc23)cc1 [Example 11, (S)-3-{4-[6-(2,6-Dimethyl-phenyl)-[1,2,4]triazolo[1,5-a]pyridin-8-ylmethoxy]-phenyl}-hex-4-ynoic acid]		

Structure (SMILES)	Emax (hGPR40) [%]	Glucose levels compared to vehicle control (Male Balb/c mice)	AUCs for glucose lowering (Zucker fa/fa rats)
CC#C[C@@H](CC(=O)O)c1ccc(OCc2cc(-c3ccc(OCCC(C)(C)O)cc3C)cn3ncnc23)cc1 [Example 8, (S)-3-(4-{6-[4-(3-Hydroxy-3-methyl-butoxy)-2-methyl-phenyl]-[1,2,4]triazolo[1,5-a]pyridin-8-ylmethoxy}-phenyl)-hex-4-ynoic acid]	> 35		
